pEC50, pIC50: −log10 of the molar value. Activity calls are given as the source filed them. No cut-off for these calls is given here.
How the values were obtained:
Assay type in all cases: functional
D(2) dopamine receptor = D(2) dopamine receptor (Homo sapiens, UniProt P14416); test: Antagonist activity at dopamine D2 receptor
[1] = target: T1, Muscarinic acetylcholine receptor M5 (Homo sapiens) (UniProt P08912); test: Agonist activity at muscarinic M5 receptor at up to 30 uM
T1 sequence (whole entry): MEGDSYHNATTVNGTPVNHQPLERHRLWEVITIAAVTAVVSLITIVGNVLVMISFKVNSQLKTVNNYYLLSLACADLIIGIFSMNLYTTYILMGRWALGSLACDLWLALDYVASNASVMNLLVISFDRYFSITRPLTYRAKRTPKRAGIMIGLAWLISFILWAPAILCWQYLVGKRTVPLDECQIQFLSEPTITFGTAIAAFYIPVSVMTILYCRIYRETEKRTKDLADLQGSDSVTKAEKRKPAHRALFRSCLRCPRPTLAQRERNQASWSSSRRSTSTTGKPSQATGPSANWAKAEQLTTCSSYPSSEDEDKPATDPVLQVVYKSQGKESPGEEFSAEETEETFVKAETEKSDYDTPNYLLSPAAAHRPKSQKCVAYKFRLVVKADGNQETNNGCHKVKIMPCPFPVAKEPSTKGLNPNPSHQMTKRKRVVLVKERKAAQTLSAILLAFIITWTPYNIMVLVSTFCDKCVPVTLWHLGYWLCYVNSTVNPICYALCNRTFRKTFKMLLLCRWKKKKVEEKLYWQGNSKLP

[2] = target: T2, Muscarinic acetylcholine receptor M1 (Homo sapiens, UniProt P11229); test: Agonist activity at muscarinic M1 receptor
T2 sequence (P11229 whole entry): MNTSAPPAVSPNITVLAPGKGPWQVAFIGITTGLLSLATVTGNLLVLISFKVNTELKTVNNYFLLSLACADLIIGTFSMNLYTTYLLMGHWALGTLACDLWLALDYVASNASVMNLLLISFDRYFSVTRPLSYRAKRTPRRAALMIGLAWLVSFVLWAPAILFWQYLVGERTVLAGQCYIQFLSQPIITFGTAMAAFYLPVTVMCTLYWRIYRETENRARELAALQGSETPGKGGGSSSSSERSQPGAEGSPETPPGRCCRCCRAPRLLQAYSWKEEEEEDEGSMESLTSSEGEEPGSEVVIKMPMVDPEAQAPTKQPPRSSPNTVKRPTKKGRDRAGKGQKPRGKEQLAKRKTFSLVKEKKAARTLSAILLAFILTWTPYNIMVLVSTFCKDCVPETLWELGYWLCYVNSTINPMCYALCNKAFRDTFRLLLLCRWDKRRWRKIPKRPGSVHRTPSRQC

[3] = target: T3, Muscarinic acetylcholine receptor M2 (Homo sapiens) (UniProt P08172); test: Agonist activity at muscarinic M2 receptor at up to 30 uM
T3 sequence (whole entry): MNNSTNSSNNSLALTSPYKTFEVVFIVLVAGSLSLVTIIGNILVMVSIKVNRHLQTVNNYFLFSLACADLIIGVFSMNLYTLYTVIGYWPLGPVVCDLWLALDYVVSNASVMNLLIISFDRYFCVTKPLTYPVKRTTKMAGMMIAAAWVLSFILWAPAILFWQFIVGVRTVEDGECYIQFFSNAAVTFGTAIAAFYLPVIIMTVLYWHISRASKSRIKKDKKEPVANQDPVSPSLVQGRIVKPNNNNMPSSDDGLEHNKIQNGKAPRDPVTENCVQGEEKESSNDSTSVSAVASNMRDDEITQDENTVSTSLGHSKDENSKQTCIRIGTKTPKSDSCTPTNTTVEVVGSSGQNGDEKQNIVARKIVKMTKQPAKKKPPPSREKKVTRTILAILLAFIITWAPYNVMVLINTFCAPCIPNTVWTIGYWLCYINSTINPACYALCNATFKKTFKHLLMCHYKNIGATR

[4] = target: T4, Muscarinic acetylcholine receptor M1 (Homo sapiens) (UniProt P11229); test: Agonist activity at muscarinic M1 receptor relative to carbachol
T4 sequence (whole entry): T2 sequence (P11229 whole entry)

[5] = target: T5, Muscarinic acetylcholine receptor M3 (Homo sapiens, UniProt P20309); test: Agonist activity at muscarinic M3 receptor at up to 30 uM
Target sequence in this assay (P20309 whole entry, looked up): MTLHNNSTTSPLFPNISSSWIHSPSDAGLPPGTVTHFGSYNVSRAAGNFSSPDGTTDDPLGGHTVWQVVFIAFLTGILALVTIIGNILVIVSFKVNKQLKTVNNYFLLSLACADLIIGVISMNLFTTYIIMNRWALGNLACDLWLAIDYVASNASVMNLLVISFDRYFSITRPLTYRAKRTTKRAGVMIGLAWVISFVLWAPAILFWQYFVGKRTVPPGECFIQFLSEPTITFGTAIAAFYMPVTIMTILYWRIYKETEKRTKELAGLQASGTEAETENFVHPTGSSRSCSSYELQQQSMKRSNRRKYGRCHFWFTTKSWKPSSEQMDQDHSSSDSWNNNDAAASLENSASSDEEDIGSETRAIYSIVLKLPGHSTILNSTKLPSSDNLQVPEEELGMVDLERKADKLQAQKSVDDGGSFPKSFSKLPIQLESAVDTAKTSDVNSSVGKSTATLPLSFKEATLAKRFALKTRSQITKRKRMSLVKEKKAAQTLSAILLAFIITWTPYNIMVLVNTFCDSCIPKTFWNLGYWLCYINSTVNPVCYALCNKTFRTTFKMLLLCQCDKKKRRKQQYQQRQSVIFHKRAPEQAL

[6] = target: T6, Muscarinic acetylcholine receptor M4 (Homo sapiens) (UniProt P08173); test: Agonist activity at muscarinic M4 receptor at up to 30 uM
T6 sequence (whole entry): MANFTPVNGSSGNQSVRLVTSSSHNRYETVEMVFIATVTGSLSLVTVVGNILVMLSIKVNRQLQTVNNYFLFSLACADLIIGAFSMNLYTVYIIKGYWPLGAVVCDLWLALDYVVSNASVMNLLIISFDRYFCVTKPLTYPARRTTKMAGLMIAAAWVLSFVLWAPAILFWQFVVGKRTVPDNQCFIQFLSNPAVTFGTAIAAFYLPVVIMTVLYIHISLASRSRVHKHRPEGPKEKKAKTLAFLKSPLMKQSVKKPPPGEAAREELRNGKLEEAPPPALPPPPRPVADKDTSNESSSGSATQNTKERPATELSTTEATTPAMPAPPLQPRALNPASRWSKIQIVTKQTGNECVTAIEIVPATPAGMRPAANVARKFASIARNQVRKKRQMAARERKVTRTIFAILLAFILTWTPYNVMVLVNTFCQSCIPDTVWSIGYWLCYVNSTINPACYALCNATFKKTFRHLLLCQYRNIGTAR

[7] = target: T7, Muscarinic acetylcholine receptor M4 (Homo sapiens, UniProt P08173); test: Agonist activity at muscarinic M4 receptor
T7 sequence (P08173 whole entry): T6 sequence (whole entry)

[8] = target: T5, Muscarinic acetylcholine receptor M3; test: Agonist activity at muscarinic M3 receptor
Target sequence in this assay (P20309 whole entry): as the sequence (P20309 whole entry, looked up) above

[9] = target: T8, Muscarinic acetylcholine receptor M2 (Homo sapiens, UniProt P08172); test: Agonist activity at muscarinic M2 receptor
T8 sequence (P08172 whole entry): T3 sequence (whole entry)

[10] = target: T9, Muscarinic acetylcholine receptor M5 (Homo sapiens, UniProt P08912); test: Agonist activity at muscarinic M5 receptor
T9 sequence (P08912 whole entry): T1 sequence (whole entry)

[11] = target: T6, Muscarinic acetylcholine receptor M4 (Homo sapiens); test: Agonist activity at muscarinic M4 receptor relative to carbachol
[12] = target: T1, Muscarinic acetylcholine receptor M5 (Homo sapiens); test: Agonist activity at muscarinic M5 receptor relative to carbachol
[13] = target: T3, Muscarinic acetylcholine receptor M2 (Homo sapiens); test: Agonist activity at muscarinic M2 receptor relative to carbachol

D(2) dopamine receptor, sequence (P14416 whole entry): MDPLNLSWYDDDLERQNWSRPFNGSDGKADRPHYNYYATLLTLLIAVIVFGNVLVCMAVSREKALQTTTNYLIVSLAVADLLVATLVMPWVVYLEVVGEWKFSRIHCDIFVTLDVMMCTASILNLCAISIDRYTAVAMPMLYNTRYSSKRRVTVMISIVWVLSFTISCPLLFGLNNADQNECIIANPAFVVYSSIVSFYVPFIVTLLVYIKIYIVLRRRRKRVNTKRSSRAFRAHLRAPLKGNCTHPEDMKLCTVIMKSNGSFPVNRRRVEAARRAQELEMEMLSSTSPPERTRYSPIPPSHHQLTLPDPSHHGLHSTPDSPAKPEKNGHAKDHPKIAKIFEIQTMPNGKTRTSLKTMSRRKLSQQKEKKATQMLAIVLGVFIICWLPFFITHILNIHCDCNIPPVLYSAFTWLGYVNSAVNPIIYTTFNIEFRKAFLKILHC

## Cc1ccccc1CN1CCC(N2CCC(n3c(=O)[nH]c4ccccc43)CC2)CC1
D(2) dopamine receptor
  pIC50: 5.29

## Cc1cccc(C(=O)N2CCC(N3CCC(n4c(=O)[nH]c5ccccc54)CC3)CC2)c1
[1]
  Activity: inactive
[2]
  pEC50: 6.29
[3]
  Activity: inactive
[4]
  Activity: 53%
[5]
  Activity: inactive
[6]
  Activity: inactive

## O=c1[nH]c2cc(Br)ccc2n1C1CCN(C2CCN(S(=O)(=O)c3ccccc3)CC2)CC1
[2]
  pEC50: 5.36
[4]
  Activity: 81%
[7]
  pEC50: < 4.52
[8]
  pEC50: < 4.52
[9]
  pEC50: < 4.52

## O=C(Nc1cccc(SC(F)(F)F)c1)N1CCC(N2CCC(n3c(=O)[nH]c4ccc(F)cc43)CC2)CC1
[2]
  pEC50: 5.02
[4]
  Activity: 72%
[7]
  pEC50: < 4.52
[8]
  pEC50: < 4.52
[9]
  pEC50: < 4.52

## O=C(Nc1cccc(SC(F)(F)F)c1)N1CCC(N2CCC(n3c(=O)[nH]c4cc(Cl)ccc43)CC2)CC1
[2]
  pEC50: 5.44
[4]
  Activity: 90%
[7]
  pEC50: < 4.52
[8]
  pEC50: < 4.52
[9]
  pEC50: < 4.52

## Cc1ccccc1C(=O)N1CCC(N2CCC(n3c(=O)[nH]c4cc(Cl)ccc43)CC2)CC1
[1]
  Activity: inactive
[2]
  pEC50: 5.57
[3]
  Activity: inactive
[4]
  Activity: 56%
[5]
  Activity: inactive
[6]
  Activity: inactive

## O=C(c1ccccc1C(F)(F)F)N1CCC(N2CCC(n3c(=O)[nH]c4ccccc43)CC2)CC1
[1]
  Activity: inactive
[2]
  pEC50: 6.04
[3]
  Activity: inactive
[4]
  Activity: 32%
[5]
  Activity: inactive
[6]
  Activity: inactive

## O=C(c1ccccc1C(F)(F)F)N1CCC(N2CCC(n3c(=O)[nH]c4cc(Cl)ccc43)CC2)CC1
[1]
  Activity: inactive
[2]
  pEC50: 4.95
[3]
  Activity: inactive
[4]
  Activity: 24%
[5]
  Activity: inactive
[6]
  Activity: inactive

## O=c1[nH]c2ccccc2n1C1CCN(C2CCN(Cc3ccccc3C(F)(F)F)CC2)CC1
[4]
  Activity: 80%

## O=C(c1cccc(Cl)c1)N1CCC(N2CCC(n3c(=O)[nH]c4ccccc43)CC2)CC1
[1]
  Activity: inactive
[2]
  pEC50: 6.03
[3]
  Activity: inactive
[4]
  Activity: 21%
[5]
  Activity: inactive
[6]
  Activity: inactive

## NC(=O)OCCN1CCC(N2CCC(n3c(=O)[nH]c4ccccc43)CC2)CC1
[10]
  pEC50: 7.46
[11]
  Activity: 96.9%
[12]
  Activity: 50.8%
[13]
  Activity: 80.6%
[7]
  pEC50: 8.04
[9]
  pEC50: 7.92

## Cc1ccccc1C(=O)N1CCC(N2CCC(n3c(=O)[nH]c4ccccc43)CC2)CC1
[1]
  Activity: inactive
[2]
  pEC50: 6.06
[3]
  Activity: inactive
[4]
  Activity: 60%
[5]
  Activity: inactive
[6]
  Activity: inactive

## O=C(Nc1cccc(SC(F)(F)F)c1)N1CCC(N2CCC(n3c(=O)[nH]c4ccccc43)CC2)CC1
[2]
  pEC50: 5.19
[4]
  Activity: 85%
[7]
  pEC50: < 4.52
[8]
  pEC50: < 4.52
[9]
  pEC50: < 4.52

## O=c1[nH]c2ccccc2n1C1CCN(C2CCN(S(=O)(=O)c3ccccc3)CC2)CC1
[2]
  pEC50: 5.85
[4]
  Activity: 82%

## O=C(Nc1cccc(SC(F)(F)F)c1)N1CCC(N2CCC(n3c(=O)[nH]c4c(F)cccc43)CC2)CC1
[2]
  pEC50: < 5.00
[4]
  Activity: 46%
[7]
  pEC50: < 4.52
[8]
  pEC50: < 4.52
[9]
  pEC50: < 4.52

## O=c1[nH]c2c(F)cccc2n1C1CCN(C2CCN(S(=O)(=O)c3ccccc3)CC2)CC1
[2]
  pEC50: 5.59
[4]
  Activity: 49%
[7]
  pEC50: < 4.52
[8]
  pEC50: < 4.52
[9]
  pEC50: < 4.52

## O=c1[nH]c2cc(F)ccc2n1C1CCN(C2CCN(S(=O)(=O)c3ccccc3)CC2)CC1
D(2) dopamine receptor
  pIC50: 5.44
[10]
  pEC50: < 4.52
[2]
  pEC50: 5.64
[4]
  Activity: 82%
[7]
  pEC50: < 4.52
[8]
  pEC50: < 4.52
[9]
  pEC50: < 4.52

## O=c1[nH]c2cc(Cl)ccc2n1C1CCN(C2CCN(S(=O)(=O)c3ccccc3)CC2)CC1
[2]
  pEC50: 5.39
[4]
  Activity: 82%
[7]
  pEC50: < 4.52
[8]
  pEC50: < 4.52
[9]
  pEC50: < 4.52

## Cc1cccc(C(=O)N2CCC(N3CCC(n4c(=O)[nH]c5cc(Cl)ccc54)CC3)CC2)c1
[1]
  Activity: inactive
[2]
  pEC50: 5.68
[3]
  Activity: inactive
[4]
  Activity: 50%
[5]
  Activity: inactive
[6]
  Activity: inactive

## O=C(c1cccc(Cl)c1)N1CCC(N2CCC(n3c(=O)[nH]c4cc(Cl)ccc43)CC2)CC1
[1]
  Activity: inactive
[2]
  pEC50: 5.15
[3]
  Activity: inactive
[4]
  Activity: 21%
[5]
  Activity: inactive
[6]
  Activity: inactive

## O=c1[nH]c2ccc(F)cc2n1C1CCN(C2CCN(S(=O)(=O)c3ccccc3)CC2)CC1
D(2) dopamine receptor
  pIC50: < 5.00
[10]
  pEC50: < 4.52
[2]
  pEC50: 5.48
[4]
  Activity: 76%
[7]
  pEC50: < 4.52
[8]
  pEC50: < 4.52
[9]
  pEC50: < 4.52
